Blank lines part the entries; values can stand above or below the molecule they belong to.
How the values were obtained:
[1] = Release into ethanol; type: physicochemical; settings: for Encapsulated dye released: ethanol
Procedure: (§1) The sample was suspended in 50/50 v/v ethanol/water (10 mL) with stirring. At each time point, the sample was centrifuged (10,000 rpm, 10 minutes) and the supernatant removed. Fresh solvent was then added and the solid resuspended. In comparison, the release of dye from a similar sample into 100% ethanol solution is very rapid, with about 40% of the dye released after several minutes.
(§2) The sample was suspended in 50/50 v/v ethanol/water (10 mL) with stirring. At each time point, the sample was centrifuged (10,000 rpm, 10 minutes) and the supernatant removed. Fresh solvent was then added and the solid resuspended. In contrast to the slow release into ethanol/water, the release into ethanol is very rapid, with approximately 70% of the encapsulated dye released within one hour.
The samples (53.5 and 49.2 mg respectively) were suspended in ethanol (100 mL) with stirring. At each time point, 1.5 mL was extracted from both samples and centrifuged to isolate the solid, which was then returned to the solution with 1 mL of fresh ethanol. The extracted 1.5 mL was analysed by UV/Vis (absorbance at 536 nm), to determine the concentration of sudan red dye released into the supernatant. The second sample released dye more quickly than the first, but by 100 minutes, both samples had released >90% of the encapsulated sudan red dye.

[2] = Release into sodium hydroxide solution at pH=12; type: physicochemical; settings: Example 3, after 27 days, both samples (phenylsiloxane and vinylsiloxane)
Procedure: The rate of release of diuron into sodium hydroxide solution at pH=12 was measured over a period of one month. Analysing the extent of release is somewhat problematic due to the low solubility of diuron in water. In order to determine the release characteristics, diuron-doped particles (about […]) were suspended in NaOH solution (0.01 mol dm^−3, 50 mL) and stirred. At one-week intervals, the solution was centrifuged and the supernatant removed. The diuron-doped particles were then resuspended in a fresh solution of NaOH (0.01 mol dm^−3, 50 mL) and stirred. The removed supernatant was shaken with octanol (10 mL) in a separating flask to extract dissolved diuron. This was repeated twice, and the resulting approximately 30 mL organic fraction was reserved for diuron analysis by HPLC. The amount of diuron released after 27 days was about 5% (of the total encapsulated) for both samples. The amount released was less than expected compared with the dissolution results at pH=12. This could reflect an incomplete extraction of diuron from the aqueous phase during the process of shaking with octanol.

[3] = Release into 50/50 v/v ethanol/water; type: physicochemical; settings: phenylsiloxane particles
Procedure: Release of retinol from the particles into 50:50 (v/v) ethanol:water solution was measured over a period of 11 days. Due to decomposition of retinol released into the solution, the supernatant was refreshed at each time point, and the release measured using UV/Vis spectroscopy (peak at 325 nm). Approximately 11% of the encapsulated retinol was released after one day, followed by slower release thereafter.
as §1, §2

[4] = Integrity of retinol after encapsulation (UV/Visible spectra, leaching into ethanol); type: physicochemical
Text: The UV/Visible spectra of the both retinol-doped and undoped phenylsiloxane particles dispersed in PTFE powder (10 wt %), were collected using a diffuse reflectance accessory. […] The bandshift from 325 nm in ethanol solution to 335 nm in the solid is due to difference of environment experienced by the retinol molecule. […] This is likely to be due to exposure to low pH (=1.0) during the hydrolysis of TMOS.

[5] = silica shell capsules loaded by post impregnation; after four hours; cited from earlier work

Molecule: CCCCNc1ccc(NCCCC)c2c1C(=O)c1ccccc1C2=O [Solvent blue 35]
Dye released ([1]; similar sample to Example 5, 100% ethanol, after several minutes): about 40%

Molecule: CN(C)C(=O)Nc1ccc(Cl)c(Cl)c1 [diuron]
Amount released (of the total encapsulated) [2]: about 5%

Molecule: C1=Cc2nc1c(-c1ccccc1)c1ccc([nH]1)c(-c1ccccc1)c1nc(c(-c3ccccc3)c3ccc([nH]3)c2-c2ccccc2)C=C1 [tetraphenyl porphyrin]
Porphyrin leached from the particles [5]: 60%

Molecule: Sudan red
Release (in words) ([3]; Example 6, 50/50 v/v ethanol/water): slow release
Encapsulated dye released ([1]; Example 6, phenylsiloxane particles, within one hour): approximately 70%
Encapsulated dye released ([1]; Example 7, vinylsiloxane particles, by 100 minutes, both samples): > 90%

Second part, led by results:

Weight removed from the solid on leaching in ethanol ([1]; 15 ml limonene: 30 ml PTMS, HPLC): about 3%
Molecule: C=C(C)[C@H]1CC=C(C)CC1 [limonene]

Encapsulated dopant released ([3]; Example 1, 50:50 (v/v) ethanol:water, after one day): Approximately 11%
Integrity after encapsulation ([4]; silica particles made by double emulsion process with TMOS, no peak at 325 nm): has been degraded
Molecule: CC1=C(/C=C/C(C)=C/C=C/C(C)=C/CO)C(C)(C)CCC1 [retinol]
Integrity after encapsulation ([4]; phenylsiloxane particles, absorption peak at 325 nm on release into ethanol): has not been damaged
